Results on 1 compound are retold here after ChEMBL document CHEMBL2331167, “Inhibitory effect of novel somatostatin peptide analogues on human cancer cell growth based on the selective inhibition of DNA polymerase β” (Bioorg Med Chem, 2013).

Calls of active or inactive are those of the source. No cut-off for these calls is given here.

In series [1] the test system is HCT-116. Description: Induction of apoptosis in p53 -/- human HCT116 cells assessed as apoptotic cells at 13.7 uM incubated for 24 hrs by TUNEL analysis. The format is functional, cell-based.
For series [2], the system named is HCT-116. Description: Induction of apoptosis in p53 +/+ human HCT116 cells assessed as apoptotic cells at 13.2 uM incubated for 24 hrs by TUNEL analysis. The format is functional.
In series [3] the test system is HCT-116. In words: Induction of apoptosis in p53 +/+ human HCT116 cells assessed as apoptotic cells at 13.2 uM incubated for 24 hrs by TUNEL analysis relative to p53 -/- human HCT116 cells. The format is functional.
Series [4] concerns HCT-116. Description: Induction of apoptosis in p53 -/- human HCT116 cells assessed as DNA fragmentation at 13.7 uM incubated for 24 hrs by agarose gel electrophoresis. Format: functional, cell-based.
In series [5] the test system is HCT-116. In words: Induction of apoptosis in p53 +/+ human HCT116 cells assessed as DNA fragmentation at 13.2 uM incubated for 24 hrs by agarose gel electrophoresis. The format is functional, cell-based.
The nature of series [6]: Cytotoxicity against human dermal fibroblasts. The conditions noted are these: hdf.
Series [7] has as its target T1, DNA polymerase lambda (Homo sapiens, UniProt Q9UGP5).
T1 sequence (Q9UGP5 whole entry): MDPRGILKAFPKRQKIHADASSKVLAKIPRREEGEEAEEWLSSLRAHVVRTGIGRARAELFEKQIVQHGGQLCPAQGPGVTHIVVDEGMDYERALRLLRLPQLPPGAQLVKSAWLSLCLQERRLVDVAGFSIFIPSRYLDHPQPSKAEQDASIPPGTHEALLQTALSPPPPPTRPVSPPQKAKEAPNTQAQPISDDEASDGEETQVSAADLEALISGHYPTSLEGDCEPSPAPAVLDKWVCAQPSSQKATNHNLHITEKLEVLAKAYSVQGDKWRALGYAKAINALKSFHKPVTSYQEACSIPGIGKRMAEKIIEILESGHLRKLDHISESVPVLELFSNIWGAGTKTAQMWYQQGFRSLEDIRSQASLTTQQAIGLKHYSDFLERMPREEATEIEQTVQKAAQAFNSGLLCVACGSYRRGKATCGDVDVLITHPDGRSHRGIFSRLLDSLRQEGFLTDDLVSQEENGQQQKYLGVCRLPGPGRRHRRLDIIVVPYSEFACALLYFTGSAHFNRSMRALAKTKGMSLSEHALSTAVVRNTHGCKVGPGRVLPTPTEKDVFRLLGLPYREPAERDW
In words: Inhibition of human DNA polymerase lambda using poly(dA)/oligo(dT)18 (A/T, 2/1)/dTTP DNA template-primer substrate measured at 37 degC for 60 mins.

In series [8] the target is DNA polymerase beta (Rattus norvegicus, UniProt P06766). Description: Inhibition of rat DNA polymerase beta using poly(dA)/oligo(dT)18 (A/T, 2/1)/dTTP DNA template-primer substrate measured at 37 degC for 60 mins.
The target in series [9] is T2, DNA polymerase subunit gamma-1 (Homo sapiens, UniProt P54098).
T2 sequence (P54098 whole entry): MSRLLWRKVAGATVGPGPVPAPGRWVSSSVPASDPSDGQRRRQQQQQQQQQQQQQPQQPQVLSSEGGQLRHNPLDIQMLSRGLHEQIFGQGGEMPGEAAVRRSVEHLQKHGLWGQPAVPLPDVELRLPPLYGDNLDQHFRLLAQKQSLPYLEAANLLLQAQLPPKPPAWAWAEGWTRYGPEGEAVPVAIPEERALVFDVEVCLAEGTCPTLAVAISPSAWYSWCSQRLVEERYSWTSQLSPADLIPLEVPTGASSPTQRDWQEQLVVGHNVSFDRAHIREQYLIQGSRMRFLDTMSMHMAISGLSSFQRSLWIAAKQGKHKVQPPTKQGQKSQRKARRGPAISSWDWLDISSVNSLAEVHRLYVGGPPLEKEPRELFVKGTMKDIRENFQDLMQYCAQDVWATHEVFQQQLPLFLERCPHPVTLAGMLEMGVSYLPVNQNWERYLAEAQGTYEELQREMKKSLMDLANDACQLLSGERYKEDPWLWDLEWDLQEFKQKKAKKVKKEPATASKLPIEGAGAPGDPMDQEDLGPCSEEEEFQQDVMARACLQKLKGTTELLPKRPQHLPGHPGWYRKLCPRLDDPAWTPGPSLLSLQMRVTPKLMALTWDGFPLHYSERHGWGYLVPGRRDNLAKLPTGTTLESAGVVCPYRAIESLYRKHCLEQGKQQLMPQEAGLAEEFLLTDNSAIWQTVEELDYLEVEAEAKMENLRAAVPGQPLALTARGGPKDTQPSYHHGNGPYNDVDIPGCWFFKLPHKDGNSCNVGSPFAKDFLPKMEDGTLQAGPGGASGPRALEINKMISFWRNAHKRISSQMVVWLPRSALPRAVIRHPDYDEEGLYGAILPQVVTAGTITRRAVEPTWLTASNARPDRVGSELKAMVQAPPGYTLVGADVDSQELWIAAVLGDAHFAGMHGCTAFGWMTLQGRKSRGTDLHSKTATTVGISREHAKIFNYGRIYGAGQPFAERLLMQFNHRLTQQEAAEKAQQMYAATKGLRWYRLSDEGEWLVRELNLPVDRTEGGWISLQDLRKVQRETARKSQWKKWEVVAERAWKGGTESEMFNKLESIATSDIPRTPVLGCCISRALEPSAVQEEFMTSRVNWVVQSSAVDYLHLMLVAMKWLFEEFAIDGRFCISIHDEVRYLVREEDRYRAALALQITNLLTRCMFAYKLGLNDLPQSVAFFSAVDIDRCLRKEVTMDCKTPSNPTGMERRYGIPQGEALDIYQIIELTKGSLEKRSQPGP
In words: Inhibition of human DNA polymerase gamma using poly(dA)/oligo(dT)18 (A/T, 2/1)/dTTP DNA template-primer substrate measured at 37 degC for 60 mins.

As to `CC[C@H](C)[C@H](NC(=O)[C@H](Cc1ccc(O)cc1)NC(=O)OC(C)(C)C)C(=O)Nc1cccc2ccccc12`, the result in series [1], in series [4] and in series [5] was Active. The “fold change (FC)” value was 5 in series [2] and 3 in [3]. For the same compound, the Activity result in series [6] is “Non-toxic”. The IC50 in [7] is over 200 µM; in series [8], 11.5 µM; in series [9] it was over 200 µM.

By IC50 is commonly meant the concentration at which inhibition is half-maximal. A higher IC50 goes with weaker potency in that assay.
